Experimental data: the supplement of paper PMC5908809

Key:
[1] = system: normal NK cells expanded with K562-aAPC; assay: percent inhibition of viability; higher = more inhibition; settings: 72 h, IL-2 2.5 ng/mL
Protocol: (§1)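 Drug sensitivity and resistance testing on K562-aAPC-expanded normal NK cells: 5 concentrations (10-fold steps over a 10,000-fold range), 72 h at 37 °C, viability by CellTiter-Glo normalised to DMSO and benzethonium chloride controls; DSS from the fitted curve.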

[2] = system: NKL (IL-2 2.5 ng/mL); assay: drug sensitivity score (DSS) (DSS units); higher = more sensitive; extreme values may be limits of the assay; settings: 72 h
[3] = system: KHYG-1 (IL-2 2.5 ng/mL); assay: as above; settings: 72 h
[4] = system: DERL-7 (IL-2 2.5 ng/mL); assay: as above; settings: 72 h
[5] = system: SNK-6 (IL-2 2.5 ng/mL); assay: as above; settings: 72 h
[6] = system: KAI3 (IL-2 2.5 ng/mL); assay: as above; settings: 72 h
[7] = system: normal primary NK cells, pool 1 (3 donors) (IL-2 2.5 ng/mL); assay: as above; settings: 72 h
[8] = system: normal primary NK cells, pool 2 (3 donors) (IL-2 2.5 ng/mL); assay: as above; settings: 72 h
[9] = system: normal primary NK cells, pool 3 (3 donors) (IL-2 2.5 ng/mL); assay: as above; settings: 72 h
[10] = system: NK-92 (IL-2 2.5 ng/mL); assay: as above; settings: 72 h
[11] = system: YT (IL-2 2.5 ng/mL); assay: as above; settings: 72 h
[12] = system: NK-YS (IL-2 2.5 ng/mL); assay: as above; settings: 72 h
[13] = system: normal primary NK cells, pool 1 (3 donors), resting (IL-2 0 ng/mL); assay: as above; settings: 72 h
[14] = system: IMC-1 (IL-2 20 ng/mL); assay: as above; settings: 72 h
[15] = system: normal NK cells expanded with K562-aAPC; assay: as above; settings: 72 h; IL-2 2.5 ng/mL
Protocol: as §1

[16] = system: NKL (IL-2 2.5 ng/mL); assay: percent inhibition of viability; higher = more inhibition; settings: 72 h
[17] = system: KHYG-1 (IL-2 2.5 ng/mL); assay: as above; settings: 72 h
[18] = system: DERL-7 (IL-2 2.5 ng/mL); assay: as above; settings: 72 h
[19] = system: SNK-6 (IL-2 2.5 ng/mL); assay: as above; settings: 72 h
[20] = system: KAI3 (IL-2 2.5 ng/mL); assay: as above; settings: 72 h
[21] = system: normal primary NK cells, pool 1 (3 donors) (IL-2 2.5 ng/mL); assay: as above; settings: 72 h
[22] = system: normal primary NK cells, pool 2 (3 donors) (IL-2 2.5 ng/mL); assay: as above; settings: 72 h
[23] = system: normal primary NK cells, pool 3 (3 donors) (IL-2 2.5 ng/mL); assay: as above; settings: 72 h
[24] = system: NK-92 (IL-2 2.5 ng/mL); assay: as above; settings: 72 h
[25] = system: YT (IL-2 2.5 ng/mL); assay: as above; settings: 72 h
[26] = system: NK-YS (IL-2 2.5 ng/mL); assay: as above; settings: 72 h
[27] = system: normal primary NK cells, pool 1 (3 donors), resting (IL-2 0 ng/mL); assay: as above; settings: 72 h
[28] = system: IMC-1 (IL-2 20 ng/mL); assay: as above; settings: 72 h

Cc1cc(Nc2nc(N[C@@H](C)c3ncc(F)cn3)ncc2Cl)[nH]n1 [AZD1480] (max concentration tested 1000 nM)
percent inhibition of viability [%]
Settings | 0.1 nM | 1 nM | 10 nM | 100 nM | 1000 nM
[1] | -0.54 | 2.03 | 10.3 | 53.7 | 95.5
[16] | -13.4 | -3.23 | 19.8 | 65.5 | 76.2
[17] | 0.27 | 3.46 | 15.9 | 86.6 | 95.6
[18] | 0.17 | 6.33 | 14.9 | 62 | 94.2
[19] | -1.78 | 7.1 | 4.31 | 59.5 | 96.2
[20] | 3.55 | 2.45 | 24.7 | 77 | 87.5
[21] | -6.31 | -10.2 | 7.91 | 39.2 | 68.6
[22] | -8.71 | -7.23 | -6.75 | 36.8 | 58
[23] | -15.9 | -5.65 | -9.13 | 21.8 | 58.1
[24] | -8.05 | 3.14 | 1.52 | 28.2 | 78
[25] | 2.34 | -1.75 | 1.84 | 10.8 | 70.7
[26] | 0.27 | -0.67 | 8.06 | 35.8 | 65.3
[27] | -5.75 | -9.19 | 6.02 | 2 | 2.57
[28] | -4.11 | -5.28 | -12.7 | -1.83 | 73.8

Settings | drug sensitivity score
[2] | 14.5
[3] | 17.9
[4] | 13.7
[5] | 12.5
[6] | 17.1
[7] | 8.59
[8] | 7.54
[9] | 6.17
[10] | 8.24
[11] | 5.7
[12] | 7.94
[13] | 0
[14] | 3.91
[15] | 12
